From the supplement of paper PMC10307832

Columns and labels:
Assay in all cases: relative viability (nuclei count vs DMSO), 5 days (fraction); higher = more cells survive
Omipalisib + AZD7762 = compound: COc1ncc(-c2ccc3nccc(-c4ccnnc4)c3c2)cc1NS(=O)(=O)c1ccc(F)cc1F [Omipalisib] + NC(=O)Nc1cc(-c2cccc(F)c2)sc1C(=O)N[C@H]1CCCNC1 [AZD7762] (partner 0.2 µM)
Method in brief: (§1)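 Relative viability divides the nuclei count in treated wells by that in vehicle wells. Lung cancer cell lines were seeded in 1536-well plates, dosed by pin tool the next day, and fixed and stained after 5 days in one step with final 0.05% Triton X-100, 1% formaldehyde and 1 ug/ml Hoechst. Dosing was a single drug or a fixed anchor-drug dose plus five library-drug doses (not always all listed) in √10 steps, and values are medians of duplicate plates imaged at 4×.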

Omipalisib + Crizotinib = compound: COc1ncc(-c2ccc3nccc(-c4ccnnc4)c3c2)cc1NS(=O)(=O)c1ccc(F)cc1F [Omipalisib] + C[C@@H](Oc1cc(-c2cnn(C3CCNCC3)c2)cnc1N)c1c(Cl)ccc(F)c1Cl [Crizotinib] (partner 1 µM)
Method in brief: as §1

Omipalisib + Pemetrexed = compound: COc1ncc(-c2ccc3nccc(-c4ccnnc4)c3c2)cc1NS(=O)(=O)c1ccc(F)cc1F [Omipalisib] + Nc1nc2[nH]cc(CCc3ccc(C(=O)N[C@@H](CCC(=O)O)C(=O)O)cc3)c2c(=O)[nH]1 [Pemetrexed] (partner 0.2 µM)
Method in brief: as §1

Omipalisib + Vorinostat = compound: COc1ncc(-c2ccc3nccc(-c4ccnnc4)c3c2)cc1NS(=O)(=O)c1ccc(F)cc1F [Omipalisib] + O=C(CCCCCCC(=O)Nc1ccccc1)NO [Vorinostat] (partner 1 µM)
Method in brief: as §1

Omipalisib + Luminespib = compound: COc1ncc(-c2ccc3nccc(-c4ccnnc4)c3c2)cc1NS(=O)(=O)c1ccc(F)cc1F [Omipalisib] + CCNC(=O)c1noc(-c2cc(C(C)C)c(O)cc2O)c1-c1ccc(CN2CCOCC2)cc1 [Luminespib] (partner 0.01 µM)
Method in brief: as §1

Omipalisib + Navitoclax = compound: COc1ncc(-c2ccc3nccc(-c4ccnnc4)c3c2)cc1NS(=O)(=O)c1ccc(F)cc1F [Omipalisib] + CC1(C)CCC(c2ccc(Cl)cc2)=C(CN2CCN(c3ccc(C(=O)NS(=O)(=O)c4ccc(N[C@H](CCN5CCOCC5)CSc5ccccc5)c(S(=O)(=O)C(F)(F)F)c4)cc3)CC2)C1 [Navitoclax] (partner 0.5 µM)
Method in brief: as §1

Cell Line	relative viability (Omipalisib + AZD7762; first compound 0.0003 µM)	relative viability (Omipalisib + AZD7762; first compound 0.003 µM)	relative viability (Omipalisib + AZD7762; first compound 0.03 µM)	relative viability (Omipalisib + Crizotinib; first compound 0.0003 µM)	relative viability (Omipalisib + Crizotinib; first compound 0.003 µM)	relative viability (Omipalisib + Crizotinib; first compound 0.03 µM)	relative viability (Omipalisib + Pemetrexed; first compound 0.0003 µM)	relative viability (Omipalisib + Pemetrexed; first compound 0.003 µM)	relative viability (Omipalisib + Pemetrexed; first compound 0.03 µM)	relative viability (Omipalisib + Vorinostat; first compound 0.0003 µM)	relative viability (Omipalisib + Vorinostat; first compound 0.003 µM)	relative viability (Omipalisib + Vorinostat; first compound 0.03 µM)	relative viability (Omipalisib + Luminespib; first compound 0.0003 µM)	relative viability (Omipalisib + Luminespib; first compound 0.003 µM)	relative viability (Omipalisib + Luminespib; first compound 0.03 µM)	relative viability (Omipalisib + Navitoclax; first compound 0.0003 µM)	relative viability (Omipalisib + Navitoclax; first compound 0.003 µM)	relative viability (Omipalisib + Navitoclax; first compound 0.03 µM)
NCI-H1355	0.699	0.571	0.358	0.999	0.653	0.327	1.01	0.868	0.52	0.646	0.396	0.232	0.637	0.579	0.273	0.931	0.538	0.343
NCI-H1993	0.45	0.403	0.382	0.83	0.618	0.63	0.529	0.478	0.513	0.788	0.162	0.378	0.806	0.465	0.485	0.722	0.703	0.618
NCI-H1755	0.471	0.382	0.328	0.848	0.805	0.481	0.504	0.393	0.402	0.747	0.738	0.517	0.445	0.292	0.375	1.01	0.848	0.368
ChaGo-K-1	0.899	0.811	0.836	1.04	1.09	1.07	0.273	0.254	0.255	0.732	0.619	0.675	0.615	0.593	0.503	0.762	0.686	0.945
NCI-H2347	0.843	0.529	0.375	0.827	0.685	0.293	0.45	0.484	0.445	0.638	0.475	0.368	0.304	0.267	0.339	0.764	0.671	0.278
NCI-H322M	0.54	0.455	0.482	0.859	0.843	0.532	0.584	0.585	0.452	0.922	0.765	0.622	0.518	0.517	0.298	1.21	0.823	0.515
LCLC-97TM1	0.158	0.36	0.116	0.243	0.159	0.11	0.191	0.146	0.14	0.728	0.378	0.179	0.692	0.511	0.202	0.503	0.149	0.164
HCC-15	1.23	0.916	0.91	0.793	0.734	0.655	0.23	0.213	0.209	0.816	0.651	0.489	0.331	0.383	0.206	0.667	0.54	0.462
PC-14	0.294	0.327	0.18	0.855	0.912	0.799	0.151	0.155	0.161	0.683	0.527	0.373	0.154	0.143	0.16	1.02	1.07	0.923
